Laboratory results as given in patent US12390461B2, “Modulators of RAR-related orphan receptors (RORs)” (11949098 CANADA INC., priority 2018, dated 2025).

Each compound was assayed on Th17 polarization of human peripheral blood mononuclear cells (assay: Th17 polarization assay (IL-17A positive cells by flow cytometry)). Conditions: PBMC, 10 nM compound, 48 hours, triplicates, average of 50% over the listed compounds, p<0.05, read-out: inhibition of the polarization of Th17 cells (percentage of IL17A positive cells relative to total CD4 T cells).
Assay type: cell-based
From the text: This assay measures the phenotypic effects of the compounds on the production of interleukin 17A (IL-17A). IL-17A genes are regulated by ROR response elements (ROREs). Compounds that bind to ROR (LBD) can inhibit the binding of RORγ to ROREs DNA site. Compounds can also reduce the effect of the binding which is enhanced by the binding of the co-activator protein.
Peripheral blood mononuclear cells were isolated by density gradient centrifugation. The principle of this method is that components of the blood have different densities and can be separated according to their relative density. […] This medium is denser than lymphocytes, monocytes, and platelets and they remain about it, but less dense than granulocytes and erythrocytes, which will drop below it. […] Four layers were form, each containing different cell types—the uppermost layer contain containing plasma was removed by pipetting. PBMCs layer and is a characteristically white and cloudy “blanket” was gently removed using a 10 ml pipette and added to warm medium or PBS (1:3) to wash off any remaining platelets and centrifuged at 400×g for 10 minutes. The pelleted cells were counted, and the percentage viability estimated using Trypan blue staining. Cells were frozen for long-term storage.
To preserve PBMCs at ultra-low temperatures in liquid nitrogen, dimethyl sulfoxide (DMSO) was used as a cryoprotectant to reduce the formation of ice crystals and prevent cell damage. To freeze, freshly isolated PBMCs are resuspended to 5×10^6 cells/mL in freezing medium containing 10% DMSO and 90% fetal bovine serum (FBS) and were placed inside a freezing container at −80° C. overnight to allow gradual and even cooling. The following day, samples were moved to a liquid nitrogen tank for long-term storage.
500 ml bottle of RPMI at 4° C. was opened in a biological safety cabinet. Half of the media was transferred to a 500 ml 0.22 um bottle top filter (with the vacuum turned off). 59 ml filtered heat inactivated fetal bovine serum (FBS), 6 ml penicillin-streptomycin solution (100×), 6.0 ml of L-glutamine (100×), 6.0 ml MEM non-essential amino acids 100×, 6.0 ml of sodium pyruvate were added and the volume was brought up to 500 ml by adding the RPMI. Culture media were stored in 4° C. and used for duration of two weeks.
PBMCs were thawed carefully to avoid loss of cell viability and functionality. Samples are removed from liquid nitrogen and placed on ice, after which they were thawed in a 37° C. water bath. Once there is a small crystal of ice left in the bottom on the tubes, 500 μL warm complete RPMI medium supplemented with 10% FBS, 1% penicillin-streptomycin, and L-glutamine was added dropwise. The cells were then transferred to Falcon tubes containing 10 mL warm medium and centrifuged for 10 minutes at 400×g to wash off the toxic DMSO. This wash step was repeated, and the cell pellet was then resuspended in medium to count as before. Once thawed, PBMCs was rested overnight to remove any apoptotic cell this increases viability and improves functionality and involves incubating the freshly thawed PBMCs in supplemented medium for approximately 18 hours. After this resting period, cells were washed to be used in culture.
Culture medium was changed every other day for the whole duration. Compounds were added to the polarized cells at day 12 for 48 hours. At measurement day, CD3/CD28 beads were removed and cells were treated with cell stimulation cocktail for 5 hours at the end of 48 hours incubation. Plates were centrifuged at 400×g for 10 minutes. Supernatant was collected for further testing and cells were resuspended in 1×PBS and washed twice at 400×g before staining for surface and intracellular markers.
The dye was used in 1:1000 concentration in 1×PBS. The cells were incubated in dye solution for 30 minutes in 4° C.
`CC1CCc2c(sc(NC(=O)c3ccccc3F)c2C(=O)N2CCN(C)CC2)C1` (stereo not drawn) [Compound 6, 2-fluoro-N-{6-methyl-3-[(4-methyl-1-piperazinyl)carbonyl]-4,5,6,7-tetrahydro-1-benzothien-2-yl}benzamide] showed an inhibition at 0.01 µM of 30 to 70%.
`O=C(Nc1sc2c(c1C(=O)c1ccccc1)CCCC2)c1cnccn1` [Compound 22, N-(3-benzoyl-4,5,6,7-tetrahydrobenzo[b]thiophen-2-yl)pyrazine-2-carboxamide] was tested, and the inhibition at 0.01 µM was 30 to 70%.
With `Cc1cnc(S(C)(=O)=O)nc1C(=O)Nc1sc2c(c1C(=O)c1ccccc1)CCCC2` [Compound 23, N-(3-benzoyl-4,5,6,7-tetrahydrobenzo[b]thiophen-2-yl)-5-methyl-2-(methylsulfonyl)pyrimidine-4-carboxamide] the inhibition at 0.01 µM was 30 to 70%.
`CC1CCN(CC(=O)Nc2sc3c(c2C(=O)NCc2ccccc2)CCCC3)CC1` [Compound 11, N-benzyl-2-{[(4-methyl-1-piperidinyl)acetyl]amino}-4,5,6,7-tetrahydro-1-benzothiophene-3-carboxamide] was tested, and the inhibition at 0.01 µM was 30 to 70%.
In the case of `CN1CCN(CC(=O)Nc2sc3c(c2C(=O)NCc2ccccc2)CCCC3)CC1` [Compound 10, N-benzyl-2-{[(4-methyl-1-piperazinyl)acetyl]amino}-4,5,6,7-tetrahydro-1-benzothiophene-3-carboxamide], the inhibition at 0.01 µM was 30 to 70%.
`CCC1CCc2c(sc(NC(=O)c3ccnn3C)c2C(=O)Nc2ccccc2C)C1` (stereo not drawn) [Compound 4, N-(6-ethyl-3-{[(2-methylphenyl)amino]carbonyl}-4,5,6,7-tetrahydro-1-benzothien-2-yl)-1-methyl-1H-pyrazole-5-carboxamide] showed an inhibition at 0.01 µM of 30 to 70%.
For `Cn1cnc(CNC(=O)c2c(NC(=O)c3cccnc3)sc3c2CCCC3)n1` [Compound 19, N-(3-(((1-methyl-1H-1,2,4-triazol-3-yl)methyl)carbamoyl)-4,5,6,7-tetrahydrobenzo[b]thiophen-2-yl)nicotinamide], the inhibition at 0.01 µM was 30 to 70%.
With `O=C(NCc1ccccc1)c1c(NC(=O)C(F)(F)F)sc2c1CCCC2` [Compound 7, N-benzyl-2-[(trifluoroacetyl)amino]-4,5,6,7-tetrahydro-1-benzothiophene-3-carboxamide] the inhibition at 0.01 µM was 30 to 70%.
`CSc1ncc(Cl)c(C(=O)Nc2sc3c(c2C(=O)NC2CCS(=O)(=O)C2)CCC(C)C3)n1` (stereo not drawn) [Compound 3, 5-chloro-N-(3-{[(1,1-dioxidotetrahydro-3-thienyl)amino]-carbonyl}-6-methyl-4,5,6,7-tetrahydro-1-benzothien-2-yl)-2-(methylthio)-4-pyrimidine-carboxamide] was tested, and the inhibition at 0.01 µM was 30 to 70%.
Work on `C[C@@H](C#N)NC(=O)c1c(NC(=O)c2cccnc2)sc2c1CCCC2` [Compound 20, (S)—N-(3-((1-cyanoethyl)carbamoyl)-4,5,6,7-tetrahydro-benzo[b]thiophen-2-yl)nicotinamide] yielded an inhibition at 0.01 µM of 30 to 70%.
For `CC1CCCN1C(=O)c1c(NC(=O)c2cccnc2)sc2c1CCCC2` (stereo not drawn) [Compound 12, N-(3-(2-methylpyrrolidine-1-carbonyl)-4,5,6,7-tetrahydro-benzo[b]thiophen-2-yl)nicotinamide], the inhibition at 0.01 µM was 30 to 70%.
Compound `C[C@@H]1CCN(C(=O)c2c(NC(=O)c3cccnc3)sc3c2CCCC3)[C@H](C)C1` [Compound 13, N-(3-((2R,4R)-2,4-dimethylpiperidine-1-carbonyl)-4,5,6,7-tetrahydrobenzo[b]thiophen-2-yl)nicotinamide] has an inhibition at 0.01 µM of 30 to 70%.
In the case of `O=C(CN1CCCCC1)Nc1sc2c(c1C(=O)NCc1ccccc1)CCCC2` [Compound 9, N-benzyl-2-[(1-piperidinylacetyl)amino]-4,5,6,7-tetrahydro-1-benzothiophene-3-carboxamide], the inhibition at 0.01 µM was 30 to 70%.
`CCC1CCN(C(=O)c2c(NC(=O)c3cccnc3)sc3c2CCCC3)C1` (stereo not drawn) [Compound 15, N-(3-(3-ethylpyrrolidine-1-carbonyl)-4,5,6,7-tetrahydro-benzo[b]thiophen-2-yl)nicotinamide] showed an inhibition at 0.01 µM of 30 to 70%.
Work on `Cn1ccnc1SCC(=O)Nc1sc2c(c1C(=O)NCc1ccccc1)CCCC2` [Compound 16, N-benzyl-2-(2-((1-methyl-1H-imidazol-2-yl)thio)acetamido)-4,5,6,7-tetrahydrobenzo[b]thiophene-3-carboxamide] yielded an inhibition at 0.01 µM of 30 to 70%.
For `CN1CCN(C(=O)c2c(NC(=O)c3ccccc3F)sc3c2CCC(C(C)(C)C)C3)CC1` (stereo not drawn) [Compound 5, N-{6-tert-butyl-3-[(4-methyl-1-piperazinyl)carbonyl]-4,5,6,7-tetrahydro-1-benzothien-2-yl}-2-fluorobenzamide], the inhibition at 0.01 µM was 30 to 70%.
`CSc1ncc(Cl)c(C(=O)Nc2sc3c(c2C(=O)NCc2ccccc2)CCCC3)n1` [Compound 2, N-(3-(benzylcarbamoyl)-4,5,6,7-tetrahydrobenzo[b]thiophen-2-yl)-5-chloro-2-(methylthio)pyrimidine-4-carboxamide] showed an inhibition at 0.01 µM of 30 to 70%.
For `Cc1ccnc(SCC(=O)Nc2sc3c(c2C(=O)NCc2ccccc2)CCCC3)n1` [Compound 8, N-benzyl-2-({[(4-methyl-2-pyrimidinyl)thio]acetyl}amino)-4,5,6,7-tetrahydro-1-benzothiophene-3-carboxamide], the inhibition at 0.01 µM was 30 to 70%.
